Source: PMC10340768, “New Hydrolyzable Tannin with Potent Antioxidant and α-Glucosidase Inhibitory Activity from Black Tea Produced from Camellia taliensis” (Foods, 2023)

Tests used:
[1] = DPPH radical scavenging assay; conditions: for DPPH Inhibition Ratio (%): at a concentration of 500 μM; for IC50: half-maximal inhibitory concentration to DPPH radical, means ± SD (n = 3);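 on all read-outs here: compounds in EtOH mixed 1:1 with 200 µM DPPH in EtOH in 96-well plates, kept dark 15 min at room temperature, with blank control and ascorbic acid as reference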
Description: (§1) The DPPH assay was conducted as follows: the tested compound (final concentration: 0.2–1000 μM in EtOH, 100 μL) and DPPH solution (200 μM in EtOH, 100 μL) were sequentially added to 96-well plates at room temperature, then hid from the light for 15 min. The blank control and positive control (ascorbic acid) were set simultaneously. OD values at 517 nm were detected with a microplate reader. ABTS^+ assay was carried out as follows: firstly, the ABTS^+ solution was prepared using the procedure in our previous paper [19]. Then, the tested compound (final concentration: 0.2–1000 μM in EtOH, 10 μL) and ABTS^+ solution (200 μL) were added to 96-well plates at room temperature in an orderly manner, and then hided from light for 6–8 min. The blank control and positive control (trolox) were set synchronously. OD values at 405 nm were then detected with a microplate reader. All the reactions were set up three replicates.

[2] = ABTS+ radical scavenging assay; conditions: for ABTS+ Inhibition Ratio (%): at a concentration of 500 μM; for IC50: half-maximal inhibitory concentration to ABTS+ radical, means ± SD (n = 3);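 on all read-outs here: ABTS+ radical solution incubated with compound in EtOH in 96-well plates for 6–8 min in the dark at room temperature, versus blank control, trolox as reference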
Description: as §1

α-glucosidase = assay: α-Glucosidase inhibitory activity (PNPG substrate); assay type: biochemical; conditions: means ± SD (n = 3)
Description: Initially, 96-well plates with the following ingredients were added in a proper order: testing compound (50 μM), α-glucosidase solution (0.025 U/mL), buffer, and the zymolyte (1 mM), and kept at 37 °C for 50 min. […] All the reactions were set up with three replicates. OD values at 405 nm were recorded with a microplate reader.

| Molecule | IC50 [1] [µM] | IC50 [2] [µM] | IC50 (α-glucosidase) [µM] | DPPH Inhibition Ratio (%) [1] [%] | ABTS+ Inhibition Ratio (%) [2] [%] |
| --- | --- | --- | --- | --- | --- |
| C[C@@H]1O[C@@H](Oc2c(-c3ccc(O)cc3)oc3cc(O)cc(O)c3c2=O)[C@H](O[C@@H]2O[C@H](CO)[C@@H](O)[C@H](O)[C@H]2O)[C@H](O)[C@H]1O [Compound 18, kaempferol 3-(2″-β-D-glucosyl)-α-L-rhamnopyranoside] | – | – | – | 1.08 | 5.89 |
| O=C(O[C@H]1C(O)O[C@@H]2COC(=O)c3cc(O)c(O)c(O)c3-c3c(cc(O)c(O)c3O)C(=O)O[C@H]2[C@@H]1O)c1cc(O)c(O)c(O)c1 (stereo partly drawn) [Compound 3, 2-O-galloyl-4,6-O-(S)-hexahydroxydiphenoyl-β-D-glucopyranose] | 941 ± 191 | 106 ± 0.5 | 1.74 ± 0.03 | – | – |
| O=C(/C=C/c1ccc(O)cc1)OC[C@H]1O[C@@H](Oc2c(-c3ccc(O)cc3)oc3cc(O)cc(O)c3c2=O)[C@H](O)[C@@H](O)[C@@H]1O [Compound 10, kaempferol 3-O-(6″-trans-p-coumaroyl)-β-D-glucopyranoside] | – | – | – | 6.28 | 11.55 |
| O=C(O)c1cccc(O)c1 [Compound 22, m-hydroxybenzoic acid] | – | – | – | 7.58 | 7.00 |
| C[C@@H]1O[C@@H](OC[C@H]2O[C@@H](Oc3c(-c4ccc(O)cc4)oc4cc(O)cc(O)c4c3=O)[C@H](O)[C@@H](O)[C@@H]2O)[C@H](O)[C@H](O)[C@H]1O [Compound 12, kaempferol 3-O-rutinoside] | – | – | – | 8.58 | 4.24 |
| O=C(O[C@@H]1O[C@@H]2COC(=O)c3cc(O)c(O)c4oc5c(O)c(O)cc(c5c34)C(=O)O[C@H]2[C@H](O)[C@H]1O)c1cc(O)c(O)c(O)c1 [Compound 1, 1-O-galloyl-4,6-tetrahydroxydibenzofurandicarboxyl-β-D-glucopyranose] | 339 ± 24.7 | 111 ± 2.1 | 1.77 ± 0.05 | – | – |
| O=C(C=Cc1ccc(O)cc1)OC1CC(O)(C(=O)O)CC(O)C1O (centres unmarked) [Compound 26, 5-O-(E)-p-coumaroylquinic acid] | – | – | – | 6.92 | 6.82 |
| O=c1c(O[C@@H]2O[C@H](CO)[C@H](O)[C@H](O)[C@H]2O)c(-c2ccc(O)cc2)oc2cc(O)cc(O)c12 [Compound 14, kaempferol 3-O-β-D-galactopyranoside] | – | – | – | −0.94 | 4.03 |
| O=C1O[C@@H](c2ccc(O)cc2)Cc2cc(O)cc(O)c21 [Compound 32, (3R)-thunberginol C] | 3940 ± 825 | 560.3 ± 3.3 | – | – | – |
| O=C(O)/C=C\c1ccc(O[C@@H]2O[C@H](COC(=O)c3cc(O)c(O)c(O)c3)[C@@H](O)[C@H](O)[C@H]2O)cc1 [Compound 2, 4-O-(6′-O-galloyl-β-D-glucopyranosyl)-cis-p-coumaric acid] | 502 ± 14 | 400 ± 9.6 | – | – | – |
| O=C(O[C@@H]1O[C@@H]2COC(=O)c3cc(O)c(O)c(O)c3-c3c(cc(O)c(O)c3O)C(=O)O[C@H]2[C@H](O)[C@H]1OC(=O)c1cc(O)c(O)c(O)c1)c1cc(O)c(O)c(O)c1 [Compound 5, 1,2-di-O-galloyl-4,6-O-(S)-hexahydroxydiphenoyl-β-D-glucopyranose] | 301 ± 79.6 | 75.6 ± 2.1 | 0.67 ± 0.04 | – | – |
| O=C(O[C@@H]1O[C@@H]2COC(=O)c3cc(O)c(O)c(O)c3-c3c(cc(O)c(O)c3O)C(=O)O[C@H]2[C@H](O)[C@H]1O)c1cc(O)c(O)c(O)c1 [Compound 4, 1-O-galloyl-4,6-O-(S)-hexahydroxydiphenoyl-β-D-glucopyranose] | 312 ± 10.8 | 84.8 ± 0.4 | 1.96 ± 0.06 | – | – |
| O=c1c(O[C@@H]2O[C@H](CO)[C@@H](O)[C@H](O)[C@H]2O)c(-c2ccc(O)cc2)oc2cc(O)cc(O)c12 [Compound 9, kaempferol 3-O-β-D-glucopyranoside] | – | – | – | 0.97 | 0.19 |
| O=C(O)c1ccc(O)cc1 [Compound 21, p-hydroxybenzoic acid] | – | – | – | 3.32 | 3.21 |
| O=C(OC[C@H]1O[C@@H](OC(=O)c2cc(O)c(O)c(O)c2)[C@H](O)[C@@H](O)[C@@H]1O)c1cc(O)c(O)c(O)c1 [Compound 6, 1,6-di-O-galloyl-β-D-glucopyranose] | 217 ± 27.4 | 99.7 ± 1.4 | – | – | – |
| O=C1O[C@H]([C@@H](O)CO)C(O)=C1O [Ascorbic acid, ascorbic acid, reference compound] | 1200 ± 87.7 | – | – | – | – |
| O=C(O)/C=C/c1ccc(O)cc1 [Compound 29, E-p-hydroxycinnamic acid] | – | – | – | 1.55 | 8.12 |
| C[C@@H]1O[C@@H](Oc2c(-c3ccc(O)cc3)oc3cc(O)cc(O)c3c2=O)[C@H](O)[C@H](O)[C@H]1O [Compound 15, kaempferol 3-O-α-L-rhamnopyranoside] | – | – | – | 1.04 | 8.00 |
| O=C(O)c1ccc(O)c(O)c1 [Compound 20, 3,4-dihydroxybenzoic acid] | 2120 ± 336 | 462 ± 9.3 | – | – | – |

Continued, in another order:

| IC50 [1] [µM] | IC50 [2] [µM] | IC50 (α-glucosidase) [µM] | Molecule | DPPH Inhibition Ratio (%) [1] [%] | ABTS+ Inhibition Ratio (%) [2] [%] |
| --- | --- | --- | --- | --- | --- |
| 237 ± 22.6 | 202 ± 3.4 | – | O=C(O)c1cc(O)c(O)c(O)c1 [Compound 19, gallic acid] | – | – |
| 722 ± 43.2 | 545 ± 12.8 | – | O=C(/C=C/c1ccc(O)c(O)c1)O[C@@H]1CC(C(=O)O)=C[C@@H](O)[C@H]1O [Compound 27, 5-O-caffeoylshikimic acid] | – | – |
| 479 ± 33.8 | 199 ± 4.1 | – | O=C(O)/C=C/c1ccc(O)c(O)c1 [Compound 28, caffeic acid] | – | – |
| – | 405 ± 6.2 | – | Cc1c(C)c2c(c(C)c1O)CCC(C)(C(=O)O)O2 (centres unmarked) [Trolox, trolox, reference compound] | – | – |
| 299 ± 32.3 | 187 ± 2.7 | – | COC(=O)c1cc(O)c(O)c(O)c1 [Compound 23, methyl gallate] | – | – |
| 2620 ± 500 | 480.9 ± 4.1 | – | C[C@@H]1O[C@@H](Oc2c(-c3ccc(O)c(O)c3)oc3cc(O)cc(O)c3c2=O)[C@H](O[C@@H]2O[C@H](CO)[C@@H](O)[C@H](O)[C@H]2O)[C@H](O)[C@H]1O [Compound 17, quercetin 3-(2″-β-D-glucosyl)-α-L-rhamnopyranoside] | – | – |
| – | 322.8 ± 0.6 | – | O=c1c(O[C@@H]2O[C@H](CO)[C@@H](O)[C@H](O)[C@H]2O)c(-c2ccc(O)c(O)c2)oc2cc(O)cc(O)c12 [Compound 11, quercetin 3-O-β-D-glucopyranoside] | – | – |
| 156 ± 26.1 | 77.2 ± 0.7 | 2.01 ± 0.02 | O=C(OC[C@H]1O[C@@H](OC(=O)c2cc(O)c(O)c(O)c2)[C@H](O)[C@@H](O)[C@@H]1OC(=O)c1cc(O)c(O)c(O)c1)c1cc(O)c(O)c(O)c1 [Compound 8, 1,4,6-tri-O-galloyl-β-D-glucopyranose] | – | – |
| 532 ± 38 | 128.4 ± 0.9 | 1.96 ± 0.05 | O=C(OC[C@H]1O[C@@H](OC(=O)c2cc(O)c(O)c(O)c2)[C@H](OC(=O)c2cc(O)c(O)c(O)c2)[C@@H](O)[C@@H]1O)c1cc(O)c(O)c(O)c1 [Compound 7, 1,2,6-tri-O-galloy-β-D-glucopyranose] | – | – |
| 900 ± 63.4 | 266 ± 5.4 | – | C[C@@H]1O[C@@H](OC[C@H]2O[C@@H](Oc3c(-c4ccc(O)c(O)c4)oc4cc(O)cc(O)c4c3=O)[C@H](O)[C@@H](O)[C@@H]2O)[C@H](O)[C@H](O)[C@H]1O [Compound 13, rutin] | – | – |
| 1140 ± 207 | 206 ± 2.6 | – | O=c1c(O)c(-c2ccc(O)c(O)c2)oc2cc(O)cc(O)c12 [Compound 16, quercetin] | – | – |
| 548 ± 61.5 | 307 ± 3.3 | – | 1-(3′,4′-dihydroxycinnamoyl) cyclopentane-2,3-diol [Compound 30] | – | – |
